Measurements: ChEMBL document CHEMBL4052645, “Discovery of potent and efficacious pyrrolopyridazines as dual JAK1/3 inhibitors” (Bioorg Med Chem Lett, 2017)

Experiments:
[1] = target: JAK2 (Homo sapiens, UniProt O60674); assay: Inhibition of human JAK2 (A829 to G1132 residues) expressed in mammalian expression system assessed as residual activity at 50 nM by KINOMEscan assay relative to control; conditions: read-out: Activity
[2] = target: Wee1-like protein kinase (Homo sapiens) (UniProt P30291); assay: Inhibition of wild-type human partial length WEE1 (M291 to K575 residues) expressed in bacterial expression system assessed as residual activity at 50 nM by Kinomescan method relative to control
[3] = test system: Phosphatidylinositol 4,5-bisphosphate 3-kinase catalytic subunit alpha isoform (Homo sapiens), P42336 [M1043I]; assay: Inhibition of human partial length PIK3CA M1043I mutant (R108 to N1068 residues) expressed in mammalian expression system assessed as residual activity at 50 nM by Kinomescan method relative to control
[4] = target: Serine/threonine-protein kinase PAK 4 (Homo sapiens) (UniProt O96013); assay: Inhibition of wild-type human partial length PAK4 (Q144 to R438 residues) expressed in bacterial expression system assessed as residual activity at 50 nM by Kinomescan method relative to control
[5] = target: Fibroblast growth factor receptor 2 (Homo sapiens) (UniProt P21802); assay: Inhibition of wild-type human partial length FGFR2 (D457 to E769 residues) expressed in bacterial expression system assessed as residual activity at 50 nM by Kinomescan method relative to control
[6] = target: Serine/threonine-protein kinase VRK2 (Homo sapiens) (UniProt Q86Y07); assay: Inhibition of wild-type human partial length VRK2 (M1 to T336 residues) expressed in mammalian expression system assessed as residual activity at 50 nM by Kinomescan method relative to control
[7] = target: Dual specificity protein kinase CLK2 (Homo sapiens) (UniProt P49760); assay: Inhibition of wild-type human partial length CLK2 (D144 to R498 residues) expressed in bacterial expression system assessed as residual activity at 50 nM by Kinomescan method relative to control
[8] = target: Mitogen-activated protein kinase kinase kinase 19 (Homo sapiens) (UniProt Q56UN5); assay: Inhibition of wild-type human partial length YSK4 (T1019 to H1328 residues) expressed in mammalian expression system assessed as residual activity at 50 nM by Kinomescan method relative to control
[9] = target: Receptor-interacting serine/threonine-protein kinase 4 (Homo sapiens) (UniProt P57078); assay: Inhibition of wild-type human partial length ANKRD3 (M1 to V303 residues) expressed in mammalian expression system assessed as residual activity at 50 nM by Kinomescan method relative to control
[10] = target: Mitogen-activated protein kinase kinase kinase 5 (Homo sapiens) (UniProt Q99683); assay: Inhibition of wild-type human partial length MAP3K5 (E648 to S964 residues) expressed in bacterial expression system assessed as residual activity at 50 nM by Kinomescan method relative to control
[11] = target: Serine/threonine-protein kinase PknB (Mycobacterium tuberculosis) (UniProt P9WI81); assay: Inhibition of wild-type Mycobacterium tuberculosis partial length PKNB (M1 to G279 residues) expressed in mammalian expression system assessed as residual activity at 50 nM by Kinomescan method relative to control
[12] = target: Mast/stem cell growth factor receptor Kit (Homo sapiens) (UniProt P10721); assay: Inhibition of wild-type human partial length KIT (I571 to D952 residues) expressed in bacterial expression system assessed as residual activity at 50 nM by Kinomescan method relative to control
[13] = target: Serine/threonine-protein kinase mTOR (Homo sapiens) (UniProt P42345); assay: Inhibition of wild-type human partial length MTOR (L1382 to W2549 residues) expressed in mammalian expression system assessed as residual activity at 50 nM by Kinomescan method relative to control
[14] = target: Interleukin-1 receptor-associated kinase 4 (Homo sapiens) (UniProt Q9NWZ3); assay: Inhibition of wild-type human partial length IRAK4 (M1 to S460 residues) expressed in mammalian expression system assessed as residual activity at 50 nM by Kinomescan method relative to control
[15] = target: Calcium/calmodulin-dependent protein kinase type 1G (Homo sapiens) (UniProt Q96NX5); assay: Inhibition of wild-type human partial length CAMK1G (M1 to A342 residues) expressed in bacterial expression system assessed as residual activity at 50 nM by Kinomescan method relative to control
[16] = target: Dual specificity protein kinase TTK (Homo sapiens) (UniProt P33981); assay: Inhibition of wild-type human partial length TTK (N505 to V798 residues) expressed in bacterial expression system assessed as residual activity at 50 nM by Kinomescan method relative to control
[17] = target: Phosphatidylinositol 4,5-bisphosphate 3-kinase catalytic subunit alpha isoform (Homo sapiens) (UniProt P42336); assay: Inhibition of wild-type human partial length PI3KCA (R108 to N1068 residues) expressed in mammalian expression system assessed as residual activity at 50 nM by Kinomescan method relative to control
[18] = target: Serine/threonine-protein kinase ULK1 (Homo sapiens) (UniProt O75385); assay: Inhibition of human ULK1 (M1 to T309 residues) expressed in mammalian expression system assessed as residual activity at 50 nM by KINOMEscan assay relative to control
[19] = target: Serine/threonine-protein kinase Nek1 (Homo sapiens) (UniProt Q96PY6); assay: Inhibition of wild-type human partial length NEK1 (M1 to K278 residues) expressed in bacterial expression system assessed as residual activity at 50 nM by Kinomescan method relative to control
[20] = target: RAC-alpha serine/threonine-protein kinase (Homo sapiens) (UniProt P31749); assay: Inhibition of wild-type human partial length AKT1 expressed in bacterial expression system assessed as residual activity at 50 nM by Kinomescan method relative to control
[21] = target: Serine/threonine-protein kinase LATS2 (Homo sapiens) (UniProt Q9NRM7); assay: Inhibition of wild-type human partial length LATS2 (Q641 to V1088 residues) expressed in mammalian expression system assessed as residual activity at 50 nM by Kinomescan method relative to control
[22] = target: Ephrin type-A receptor 3 (Homo sapiens) (UniProt P29320); assay: Inhibition of wild-type human partial length EPHA3 (D604 to K889 residues) expressed in bacterial expression system assessed as residual activity at 50 nM by Kinomescan method relative to control
[23] = target: Atypical kinase COQ8A, mitochondrial (Homo sapiens) (UniProt Q8NI60); assay: Inhibition of wild-type human […] ADCK3 (M280 to Q647 residues) expressed in bacterial expression system assessed as residual activity at 50 nM by Kinomescan method relative to control
[24] = target: Myosin light chain kinase, smooth muscle (Homo sapiens) (UniProt Q15746); assay: Inhibition of wild-type human full length SMMLCK (M854 to E1845 residues) expressed in mammalian expression system assessed as residual activity at 50 nM by Kinomescan method relative to control
[25] = target: Calcium/calmodulin-dependent protein kinase kinase 1 (Homo sapiens) (UniProt Q8N5S9); assay: Inhibition of wild-type human partial length CAMKK1 (R65 to E414 residues) expressed in bacterial expression system assessed as residual activity at 50 nM by Kinomescan method relative to control
Chain of Calcium/calmodulin-dependent protein kinase kinase 1 (Homo sapiens) (Q8N5S9 whole entry, looked up, the tested form may be a part): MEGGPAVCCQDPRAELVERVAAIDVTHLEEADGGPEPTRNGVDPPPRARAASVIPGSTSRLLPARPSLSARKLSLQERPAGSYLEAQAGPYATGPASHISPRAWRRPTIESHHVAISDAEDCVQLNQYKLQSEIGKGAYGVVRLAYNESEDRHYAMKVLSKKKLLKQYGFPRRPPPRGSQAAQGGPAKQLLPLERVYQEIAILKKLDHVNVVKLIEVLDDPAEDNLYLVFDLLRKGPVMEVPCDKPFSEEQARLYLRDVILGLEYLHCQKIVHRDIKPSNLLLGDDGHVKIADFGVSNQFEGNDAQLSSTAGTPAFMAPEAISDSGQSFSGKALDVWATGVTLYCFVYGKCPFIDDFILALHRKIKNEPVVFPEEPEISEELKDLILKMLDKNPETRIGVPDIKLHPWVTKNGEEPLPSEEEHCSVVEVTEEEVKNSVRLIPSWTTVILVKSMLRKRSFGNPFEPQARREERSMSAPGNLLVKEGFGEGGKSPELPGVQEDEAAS

Chain of Phosphatidylinositol 4,5-bisphosphate 3-kinase catalytic subunit alpha isoform (Homo sapiens), P42336 [M1043I] (P42336 whole entry M1043I, the tested form may be a part, canonical isoform): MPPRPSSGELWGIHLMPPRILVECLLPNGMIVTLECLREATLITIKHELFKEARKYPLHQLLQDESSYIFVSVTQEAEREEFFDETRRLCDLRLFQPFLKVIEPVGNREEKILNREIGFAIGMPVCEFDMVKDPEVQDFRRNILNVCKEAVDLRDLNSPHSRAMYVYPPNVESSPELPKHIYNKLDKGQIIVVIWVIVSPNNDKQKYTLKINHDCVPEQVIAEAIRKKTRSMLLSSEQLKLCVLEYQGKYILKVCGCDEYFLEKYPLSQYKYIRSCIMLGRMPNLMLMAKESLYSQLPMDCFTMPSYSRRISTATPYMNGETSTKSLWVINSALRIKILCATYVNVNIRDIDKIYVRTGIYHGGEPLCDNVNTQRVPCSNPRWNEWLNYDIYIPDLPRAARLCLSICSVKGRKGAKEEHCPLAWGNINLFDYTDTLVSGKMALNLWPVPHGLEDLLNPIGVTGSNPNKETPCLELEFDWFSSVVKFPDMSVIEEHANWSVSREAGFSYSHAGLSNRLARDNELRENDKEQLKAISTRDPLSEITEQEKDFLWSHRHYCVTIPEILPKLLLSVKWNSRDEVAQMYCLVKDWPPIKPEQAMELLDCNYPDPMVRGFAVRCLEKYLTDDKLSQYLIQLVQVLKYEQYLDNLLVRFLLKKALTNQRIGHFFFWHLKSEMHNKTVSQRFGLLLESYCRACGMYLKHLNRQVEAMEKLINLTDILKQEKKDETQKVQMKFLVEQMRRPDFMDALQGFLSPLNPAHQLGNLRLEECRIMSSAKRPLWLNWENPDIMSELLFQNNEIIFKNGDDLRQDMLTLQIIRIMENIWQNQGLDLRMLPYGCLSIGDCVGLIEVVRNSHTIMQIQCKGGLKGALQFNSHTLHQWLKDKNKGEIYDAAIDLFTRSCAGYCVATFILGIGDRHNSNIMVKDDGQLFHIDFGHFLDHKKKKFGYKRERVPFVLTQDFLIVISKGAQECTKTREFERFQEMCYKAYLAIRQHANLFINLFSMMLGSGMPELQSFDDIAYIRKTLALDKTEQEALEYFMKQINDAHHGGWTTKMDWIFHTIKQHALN
Chain of JAK2 (O60674 whole entry, the tested form may be a part): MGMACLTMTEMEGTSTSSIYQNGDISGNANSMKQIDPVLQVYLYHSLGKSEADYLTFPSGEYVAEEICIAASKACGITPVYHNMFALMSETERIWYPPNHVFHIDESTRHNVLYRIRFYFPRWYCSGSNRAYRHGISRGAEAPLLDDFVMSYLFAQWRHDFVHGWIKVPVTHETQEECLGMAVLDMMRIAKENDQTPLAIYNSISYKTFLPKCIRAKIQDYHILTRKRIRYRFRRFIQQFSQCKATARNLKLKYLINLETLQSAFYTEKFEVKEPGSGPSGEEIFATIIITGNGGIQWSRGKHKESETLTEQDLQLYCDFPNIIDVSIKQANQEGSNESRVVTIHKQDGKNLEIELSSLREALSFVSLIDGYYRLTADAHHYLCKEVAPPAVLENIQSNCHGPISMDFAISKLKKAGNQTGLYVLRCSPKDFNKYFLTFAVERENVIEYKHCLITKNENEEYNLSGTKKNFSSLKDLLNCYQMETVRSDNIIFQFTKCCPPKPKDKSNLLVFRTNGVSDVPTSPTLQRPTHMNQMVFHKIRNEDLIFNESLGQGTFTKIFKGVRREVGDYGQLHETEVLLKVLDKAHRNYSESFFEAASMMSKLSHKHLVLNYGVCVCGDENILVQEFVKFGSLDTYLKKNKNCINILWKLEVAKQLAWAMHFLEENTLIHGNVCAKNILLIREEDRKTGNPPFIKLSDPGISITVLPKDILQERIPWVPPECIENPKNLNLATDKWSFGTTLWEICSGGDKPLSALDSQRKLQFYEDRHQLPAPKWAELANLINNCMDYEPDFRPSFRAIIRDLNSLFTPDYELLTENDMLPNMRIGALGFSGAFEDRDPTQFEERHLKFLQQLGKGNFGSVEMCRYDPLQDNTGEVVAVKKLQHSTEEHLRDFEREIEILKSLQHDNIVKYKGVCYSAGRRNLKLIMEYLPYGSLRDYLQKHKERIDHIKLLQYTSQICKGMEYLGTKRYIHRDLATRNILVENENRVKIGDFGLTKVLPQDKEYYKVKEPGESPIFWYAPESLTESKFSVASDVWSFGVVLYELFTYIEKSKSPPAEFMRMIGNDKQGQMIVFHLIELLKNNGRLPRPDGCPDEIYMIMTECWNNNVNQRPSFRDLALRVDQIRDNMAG
Chain of Serine/threonine-protein kinase PAK 4 (Homo sapiens) (O96013 whole entry, looked up, the tested form may be a part): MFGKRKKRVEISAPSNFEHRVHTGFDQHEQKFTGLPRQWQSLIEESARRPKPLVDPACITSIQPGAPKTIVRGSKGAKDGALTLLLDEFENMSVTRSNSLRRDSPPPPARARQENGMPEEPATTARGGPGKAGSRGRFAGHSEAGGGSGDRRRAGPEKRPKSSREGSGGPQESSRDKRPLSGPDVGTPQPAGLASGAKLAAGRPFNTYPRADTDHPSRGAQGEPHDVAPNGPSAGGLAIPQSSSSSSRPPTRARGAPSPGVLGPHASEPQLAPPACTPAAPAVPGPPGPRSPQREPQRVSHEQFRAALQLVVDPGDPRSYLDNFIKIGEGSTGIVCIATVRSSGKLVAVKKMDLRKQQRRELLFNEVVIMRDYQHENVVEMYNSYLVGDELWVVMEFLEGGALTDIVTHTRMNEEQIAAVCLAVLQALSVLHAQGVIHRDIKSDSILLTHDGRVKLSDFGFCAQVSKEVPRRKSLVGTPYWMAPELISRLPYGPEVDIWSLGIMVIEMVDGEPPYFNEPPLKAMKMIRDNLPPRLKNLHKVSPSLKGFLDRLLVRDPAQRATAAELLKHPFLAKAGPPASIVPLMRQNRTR
Chain of Mast/stem cell growth factor receptor Kit (Homo sapiens) (P10721 whole entry, the tested form may be a part): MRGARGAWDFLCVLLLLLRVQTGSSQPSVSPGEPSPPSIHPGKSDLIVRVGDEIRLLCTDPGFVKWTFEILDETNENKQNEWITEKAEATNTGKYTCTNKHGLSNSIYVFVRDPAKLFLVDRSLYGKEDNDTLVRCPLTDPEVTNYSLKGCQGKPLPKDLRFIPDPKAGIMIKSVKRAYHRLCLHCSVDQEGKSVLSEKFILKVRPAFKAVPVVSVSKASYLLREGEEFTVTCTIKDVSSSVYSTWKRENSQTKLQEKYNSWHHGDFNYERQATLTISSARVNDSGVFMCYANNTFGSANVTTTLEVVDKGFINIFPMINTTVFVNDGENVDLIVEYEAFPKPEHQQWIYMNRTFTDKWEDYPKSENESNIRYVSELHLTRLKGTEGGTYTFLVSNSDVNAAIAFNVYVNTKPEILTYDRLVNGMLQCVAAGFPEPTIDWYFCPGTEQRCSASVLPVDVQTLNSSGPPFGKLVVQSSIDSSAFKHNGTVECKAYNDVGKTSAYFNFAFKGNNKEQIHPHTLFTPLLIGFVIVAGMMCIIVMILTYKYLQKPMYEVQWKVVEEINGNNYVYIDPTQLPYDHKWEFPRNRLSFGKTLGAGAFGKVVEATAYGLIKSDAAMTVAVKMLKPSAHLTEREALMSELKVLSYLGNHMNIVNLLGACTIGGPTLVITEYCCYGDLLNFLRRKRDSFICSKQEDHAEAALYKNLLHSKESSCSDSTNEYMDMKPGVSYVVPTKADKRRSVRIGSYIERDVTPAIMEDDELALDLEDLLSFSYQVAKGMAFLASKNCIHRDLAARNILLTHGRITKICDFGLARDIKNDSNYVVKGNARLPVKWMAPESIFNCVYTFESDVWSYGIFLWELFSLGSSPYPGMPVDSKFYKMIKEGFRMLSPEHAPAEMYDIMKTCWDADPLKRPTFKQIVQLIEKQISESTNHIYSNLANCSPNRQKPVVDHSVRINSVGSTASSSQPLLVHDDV
Chain of Phosphatidylinositol 4,5-bisphosphate 3-kinase catalytic subunit alpha isoform (Homo sapiens) (P42336 whole entry, the tested form may be a part, canonical isoform): as the sequence (P42336 whole entry M1043I, the tested form may be a part, canonical isoform) above, with I1043M counted along it
Chain of Atypical kinase COQ8A, mitochondrial (Homo sapiens) (Q8NI60 163-647 limits assumed): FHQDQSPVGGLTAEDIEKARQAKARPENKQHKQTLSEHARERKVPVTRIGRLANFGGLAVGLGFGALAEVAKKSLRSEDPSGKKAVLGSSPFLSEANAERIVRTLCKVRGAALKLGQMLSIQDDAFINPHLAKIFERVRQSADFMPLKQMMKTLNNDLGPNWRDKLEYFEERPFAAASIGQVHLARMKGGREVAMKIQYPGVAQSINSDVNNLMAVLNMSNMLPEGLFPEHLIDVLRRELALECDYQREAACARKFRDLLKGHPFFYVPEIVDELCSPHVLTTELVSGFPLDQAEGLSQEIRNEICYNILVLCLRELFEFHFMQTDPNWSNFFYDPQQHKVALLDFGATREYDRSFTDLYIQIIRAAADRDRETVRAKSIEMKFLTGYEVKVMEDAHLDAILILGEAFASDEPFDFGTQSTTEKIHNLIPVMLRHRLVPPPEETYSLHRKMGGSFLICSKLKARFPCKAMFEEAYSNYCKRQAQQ

SMILES | activity at 0.05 µM [1] [%] | Activity [2] [%] | Activity [3] [%] | Activity [4] [%] | Activity [5] [%] | Activity [6] [%] | Activity [7] [%] | Activity [8] [%] | Activity [9] [%] | Activity [10] [%] | Activity [11] [%] | Activity [12] [%] | Activity [13] [%] | Activity [14] [%] | Activity [15] [%] | Activity [16] [%] | Activity [17] [%] | Activity [18] [%] | Activity [19] [%] | Activity [20] [%] | further results
CC1(C)[C@H](Nc2c(C(N)=O)cnn3cc(-c4ccccc4)cc23)CC[C@]1(C)N | 3.9 | 97 | 66 | 73 | 100 | 70 | 69 | 100 | 59 | 100 | 17 | 55 | 95 | 100 | 100 | 100 | 100 | 27 | 100 | 79 | Activity [21]: 100%; Activity [22]: 65%; Activity [23]: 100%; Activity [24]: 100%; Activity [25]: 92%
COc1ccc(-c2cc3c(N[C@@H]4CC[C@](C)(N)C4(C)C)c(C(N)=O)cnn3c2)cn1 | 17 | 100 | 100 | 86 | 89 | 85 | 71 | 98 | 98 | 100 | 24 | 98 | 97 | 100 | 82 | 81 | 100 | 61 | 92 | 95 | Activity [21]: 94%; Activity [22]: 88%; Activity [23]: 76%; Activity [24]: 87%; Activity [25]: 100%
